Test in all cases: cells
For data set [1], the system named is A549 cells (lung carcinoma, NSCLC). The following applies: A549, SRB; for GI50: 72 hours treatment; for TGI: total cell growth inhibition; for TGI / CC50: 72 hours; for CC50: read-out: LC50, 50% net cell killing. From the text:
(§1) The aim of this assay is to evaluate the in vitro cytostatic (ability to delay or arrest tumor cell growth) or cytotoxic (ability to kill tumor cells) activity of the samples being tested.
(§2) A colorimetric assay, using sulforhodamine B (SRB) reaction has been adapted to provide a quantitative measurement of cell growth and viability (following the technique described by Skehan et al. J. Natl. Cancer Inst. 1990, 82, 1107-1112). Another colorimetric assay based on 3-(4,5-Dimethylthiazol-2-yl)-2,5-diphenyltetrazolium bromide (MTT) reduction to a purple formazan has been also used to assess the antiproliferative activity (following the technique described by Mosmann et al. J. Immunol. Meth. 1983, 65, 55-63).
(§3) These forms of assays employ 96-well cell culture microplates following the standards of the American National Standards Institute and the Society for Laboratory Automation and Screening (ANSI SLAS 1-2004 (R2012) Oct. 12, 2011. All the cell lines used in this study were obtained from the American Type Culture Collection (ATCC) and derive from different types of human cancer.
(§4) A549, HT29, MDA-MB-231 and PSN1 cells were maintained in Dulbecco's Modified Eagle Medium (DMEM) while PC-3 and 22Rv1 cells were maintained in Roswell Park Memorial Institute Medium (RPMI). All cell lines were supplemented with 10% Fetal Bovine Serum (FBS), 2 mM L-glutamine, 100 U/mL penicillin, and 100 […] at 37° C., 5% CO2 and 98% humidity. For the experiments, cells were harvested from subconfluent cultures using trypsinization and resuspended in fresh medium before counting and plating.
(§5) A549, HT29, MDA-MB-231 and PSN1 cells were seeded in 96 well microtiter plates, at 5000 cells per well in aliquots of 150 μL, and allowed to attach to the plate surface for 18 hours (overnight) in drug free medium. After that, one control (untreated) plate of each cell line was fixed (as described below) and used for time zero reference value. Culture plates were then treated with test compounds (50 μL aliquots of 4× stock solutions in complete culture medium plus 4% DMSO) using ten ⅖ serial dilutions (concentrations ranging from 10 to 0.003 μg/mL) and triplicate cultures (1% final concentration in DMSO). After 72 hours treatment, the antitumor effect was measured by using the SRB methodology: Briefly, cells were washed twice with PBS, fixed for 15 min in 1% glutaraldehyde solution at room temperature, rinsed twice in PBS, and stained in 0.4% SRB solution for 30 min at room temperature. Cells were then rinsed several times with 1% acetic acid solution and air-dried at room temperature.
(§6) Effects on cell growth and survival were estimated by applying the NCI algorithm (Boyd M R and Paull K D. Drug Dev. Res. 1995, 34, 91-104). The values obtained in triplicate cultures were fitted by nonlinear regression to a four-parameters logistic curve by nonlinear regression analysis.

The test system of data set [2] is HT29 cells (colorectal adenocarcinoma). The settings on record: HT29, SRB; for TGI: total cell growth inhibition; for TGI / CC50: 72 hours; for CC50: read-out: LC50, 50% net cell killing; for GI50: 72 hours treatment.
Description: as §1, §2, §3, §4, §5, §6

Data set [3] deals with MDA-MB-231 cells (breast adenocarcinoma). The following applies: for TGI: total cell growth inhibition; for TGI / CC50: 72 hours; for CC50: read-out: LC50, 50% net cell killing.
Description: as §1, §2, §3, §4, §5, §6

Data set [4] concerns PSN1 cells (pancreas adenocarcinoma). The following applies: PSN1, SRB; for GI50: 72 hours treatment; for TGI: total cell growth inhibition; for TGI / CC50: 72 hours; for CC50: read-out: LC50, 50% net cell killing.
Description: as §1, §2, §3, §4, §5, §6

[5] abbreviates: MDA-MB-231, 72 hours treatment, SRB.

Bounds are passed on as bounds.

Regarding `COc1c(C)cc2c(c1O)[C@@H]1[C@@H]3[C@@H]4SC[C@]5(N[C@H](C)Cc6c5[nH]c5ccccc65)C(=O)OC[C@@H](c5c6c(c(C)c(OC(C)=O)c54)OCO6)N3[C@@H](C#N)[C@H](C2)N1C` [A, reference compound], the GI50 was 8.36 nM in data set [1], 7.07 nM in data set [3] (setting [5]) and 12.9 nM in data set [4]. For the same molecule, the TGI in data set [1] turned out to be 8.87E−09 Molar; in data set [2] it was 8.36E−09 Molar; in data set [3] (MDA-MB-231, SRB), 9.38E−09 Molar; in data set [4], 1.54E−08 Molar. The CC50 in data set [1] was more than 129 nM; in data set [2], more than 129 nM; in data set [3] (MDA-MB-231, SRB), 14.1 nM; in data set [4], 19.3 nM.
For `COc1c(C)cc2c(c1O)[C@@H]1[C@@H]3[C@@H]4SC[C@]5(N[C@@H](C)Cc6c5[nH]c5ccccc65)C(=O)OC[C@@H](c5c6c(c(C)c(OC(C)=O)c54)OCO6)N3[C@@H](C#N)[C@H](C2)N1C` [B, reference compound], the GI50 in data set [1] was found to be 20.6 nM; in data set [2], 8.48 nM; in data set [3] (setting [5]), 9 nM; in data set [4] it was 19.3 nM. Further, the TGI in data set [1] is listed as 2.19E−08 Molar; in data set [2], 9.13E−09 Molar; in data set [3] (MDA-MB-231, SRB) it was 1.67E−08 Molar; in data set [4], 2.06E−08 Molar. Besides, the CC50 in data set [1] was more than 129 nM; in data set [2], more than 129 nM; in data set [3] (MDA-MB-231, SRB), 34.7 nM; in data set [4] it was 23.1 nM.
On to `COc1c(C)cc2c(c1O)[C@@H]1[C@@H]3[C@@H]4SC[C@]5(N[C@@H](CO)Cc6c5[nH]c5ccccc65)C(=O)OC[C@@H](c5c6c(c(C)c(OC(C)=O)c54)OCO6)N3[C@@H](C#N)[C@H](C2)N1C` [Compound 3-R], for which the GI50 in data set [1] came out at 403 nM; in data set [4] it was 0.39 nM. Further, the TGI in data set [1] was 5.79E−10 Molar; in data set [2], more than 1.26E−07 Molar; in data set [3] (MDA-MB-231, SRB), 5.04E−10 Molar; in data set [4], 6.05E−10 Molar. Moreover, the CC50 in data set [1] was more than 126 nM; in data set [2] it was more than 126 nM; in data set [3] (MDA-MB-231, SRB), 1.25 nM; in data set [4] it was more than 126 nM.
As for `C=CCOC(=O)NC[C@H]1Cc2c([nH]c3ccccc23)[C@@]2(CS[C@@H]3c4c(OC(C)=O)c(C)c5c(c4[C@H](COC2=O)N2[C@@H]3[C@H]3c4c(cc(C)c(OC)c4O)C[C@@H]([C@@H]2C#N)N3C)OCO5)N1` [Compound 10-R], in data set [2], the TGI is more than 1.14E−07 Molar and the CC50 was more than 114 nM.
As for `COc1c(C)cc2c(c1O)[C@@H]1[C@@H]3[C@@H]4SC[C@]5(N[C@@H](CN)Cc6c5[nH]c5ccccc65)C(=O)OC[C@@H](c5c6c(c(C)c(OC(C)=O)c54)OCO6)N3[C@@H](C#N)[C@H](C2)N1C` [Compound 11-R], in data set [1], it took 1.77 nM to inhibit growth by half (GI50), the TGI amounted to 4.54E−09 Molar and the CC50 was more than 126 nM. Besides, in data set [2], halving of growth (GI50) required 1.39 nM, the TGI was more than 1.26E−07 Molar and the CC50 is more than 126 nM. Further, in data set [4], the GI50 stood at 1.39 nM, the TGI was determined as 1.89E−09 Molar and the CC50 was more than 126 nM.
`COc1c(C)cc2c(c1O)[C@@H]1[C@@H]3[C@@H]4SC[C@]5(N[C@H](CN)Cc6c5[nH]c5ccccc65)C(=O)OC[C@@H](c5c6c(c(C)c(OC(C)=O)c54)OCO6)N3[C@@H](C#N)[C@H](C2)N1C` [Compound 11-S]: in data set [1], the CC50 was more than 126 nM. In data set [2], the TGI is more than 1.26E−07 Molar and the CC50 is more than 126 nM.
With `C=CCOC(=O)NC[C@@H]1Cc2c(oc3ccccc23)[C@@]2(CS[C@@H]3c4c(OC(C)=O)c(C)c5c(c4[C@H](COC2=O)N2[C@@H]3[C@H]3c4c(cc(C)c(OC)c4O)C[C@@H]([C@@H]2C#N)N3C)OCO5)N1` [Compound 45-S], the GI50 in data set [3] (Homo sapiens, MDA-MB-231, 72 h) was determined as 11.7 nM.

One may read the GI50 as the concentration at which growth is held to half of that of the control. A high value points to lower sensitivity of the cells.
